Question: Which melting point does the source give for `O=C(O)c1cn(C2CC2)c2cc(N3CCN(Cn4nc(-c5ccncc5)n(-c5ccccc5)c4=S)CC3)c(F)cc2c1=O` [Compound 12, 1-Cyclopropyl-6-fluoro-4-oxo-7-[4-(4-phenyl-3-pyridin-4-yl-5-thioxo-4,5-dihydro-[1,2,4]triazol-1-ylmethyl)-piperazin-1-yl]-1,4-dihydro-quinoline-3-carboxylic acid] here?
Answer: 227 °C

Question: With `O=C(O)c1cn(C2CC2)c2cc(N3CCN(Cn4nc(-c5ccccc5Cl)n(-c5ccccc5)c4=S)CC3)c(F)cc2c1=O` [Compound 8, 7-{4-[3-(2-Chloro-phenyl)-4-phenyl-5-thioxo-4,5-dihydro-[1,2,4]triazol-1-ylmethyl]-piperazin-1-yl}-1-cyclopropyl-6-fluoro-4-oxo-1,4-dihydro-quinoline-3-carboxylic acid] as the compound, how does the melting point read?
Answer: 214 °C

Question: For `O=C(O)c1cn(C2CC2)c2cc(N3CCN(CN4C(=O)SC(=Cc5ccccc5O)C4=O)CC3)c(F)cc2c1=O` [Compound 19, 1-Cyclopropyl-6-fluoro-7-{4-[5-(2-hydroxy-benzylidene)-2,4-dioxo-thiazolidin-3-ylmethyl]-piperazin-1-yl}-4-oxo-1,4-dihydro-quinoline-3-carboxylic acid], which melting point is on record?
Answer: 244 °C

Question: With `O=C(O)c1cn(C2CC2)c2cc(N3CCN(CN4C(=O)SC(=Cc5ccc(Cl)cc5)C4=O)CC3)c(F)cc2c1=O` [Compound 17, 7-{4-[5-(4-Chloro-benzylidene)-2,4-dioxo-thiazolidin-3-ylmethyl]-piperazin-1-yl}-1-cyclopropyl-6-fluoro-4-oxo-1,4-dihydro-quinoline-3-carboxylic acid] as the compound, how does the melting point read?
Answer: 244 °C

Question: With `O=C(O)c1cn(C2CC2)c2cc(N3CCN(CN4C(=O)C(c5ccccc5)(c5ccccc5)NC4=S)CC3)c(F)cc2c1=O` [Compound 13, 1-Cyclopropyl-6-fluoro-4-oxo-7-[4-(5-oxo-4,4-diphenyl-2-thioxo-imidazolidin-1-ylmethyl)-piperazin-1-yl]-1,4-dihydro-quinoline-3-carboxylic acid] as the compound, how does the melting point read?
Answer: 217 °C

Question: Which melting point does the source give for `N#CN=C1NC(c2ccccc2)(c2ccccc2)C(=O)N1CN1CCN(c2cc3c(cc2F)c(=O)c(C(=O)O)cn3C2CC2)CC1` [Compound 15, 7-[4-(2-Cyanoimino-5-oxo-4,4-diphenyl-imidazolidin-1-ylmethyl)-piperazin-1-yl]-1-cyclopropyl-6-fluoro-4-oxo-1,4-dihydro-quinoline-3-carboxylic acid] here?
Answer: 230 °C

Question: With `O=C(O)c1cn(C2CC2)c2cc(N3CCN(Cn4nc(-c5ccccn5)n(-c5ccccc5)c4=S)CC3)c(F)cc2c1=O` [Compound 10, 1-Cyclopropyl-6-fluoro-4-oxo-7-[4-(4-phenyl-3-pyridin-2-yl-5-thioxo-4,5-dihydro-[1,2,4]triazol-1-ylmethyl)-piperazin-1-yl]-1,4-dihydro-quinoline-3-carboxylic acid] as the compound, how does the melting point read?
Answer: 270 °C

Question: Which melting point does the source give for `O=C(O)c1cn(C2CC2)c2cc(N3CCN(Cn4nc(-c5ccccc5)oc4=S)CC3)c(F)cc2c1=O` [Compound 1, 1-Cyclopropyl-6-fluoro-4-oxo-7-[4-(5-phenyl-2-thioxo[1,3,4]oxadiazol-3-yl-methyl)-piperazin-1-yl]-1,4-dihydro-quinoline-3-carboxylic acid] here?
Answer: 228 °C

Question: With `NN1C(=S)N(CN2CCN(c3cc4c(cc3F)c(=O)c(C(=O)O)cn4C3CC3)CC2)C(=O)C1(c1ccccc1)c1ccccc1` [Compound 14, 7-[4-(3-Amino-5-oxo-4,4-diphenyl-2-thioxo-imidazolidin-1-ylmethyl)-piperazin-1-yl]-1-cyclopropyl-6-fluoro-4-oxo-1,4-dihydro-quinoline-3-carboxylic acid] as the compound, how does the melting point read?
Answer: 234 °C

Question: With `COc1ccc(C=C2SC(=O)N(CN3CCN(c4cc5c(cc4F)c(=O)c(C(=O)O)cn5C4CC4)CC3)C2=O)cc1` [Compound 18, 1-Cyclopropyl-6-fluoro-7-{4-[5-(4-methoxy-benzylidene)-2,4-dioxo-thiazolidin-3-ylmethyl]-piperazin-1-yl}-4-oxo-1,4-dihydro-quinoline-3-carboxylic acid] as the compound, how does the melting point read?
Answer: 251 °C

From publication PMC8145110, “Design, Synthesis, and Antibacterial Screening of Some Novel Heteroaryl-Based Ciprofloxacin Derivatives as DNA Gyrase and Topoisomerase IV Inhibitors” (Pharmaceuticals, 2021)
